Measurements reported in US20250289793A1, “MACROCYCLIC INHIBITORS OF ATP CITRATE LYASE” (Esperion Therapeutics, Inc., priority 2022, published 2025).

How the values were obtained:
ACLY [1] = molecular target: T1, ACLY (Homo sapiens (Human), UniProt P53396); assay: Human ACLY (hACLY) RF/MS activity assay; type: biochemical; details: 1 nM hACLY; 30 min pre-incubation; 15 μM Coenzyme A, 50 μM ATP, 50 μM citrate; CoA to Acetyl-CoA by RF/MS; read-out: RFMS IC50 GMean
How it was run: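 Reaction buffer was 50 mM Hepes pH 8.0, 10 mM MgCl2, 0.003% BSA, 0.01% Brij35, 50 mM NaCl, 4 mM DTT, with 1 nM hACLY and 1% DMSO; compounds (two-fold series from 10 μM) were pre-incubated 30 min at RT. Reaction with 15 μM CoA, 50 μM ATP, 50 μM citrate ran 30 min, formic-acid quenched; CoA and acetyl-CoA quantified by RF/MS as ratio.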

ACLY [2] = molecular target: T1, ACLY; assay: InCell Pulse assay (permeate HEK293 cells, bind to and stabilize ACLY); type: cell-based; details: HEK293 cells transfected with pICP-ACLY(FL)-ePL; 1 hour at 37° C., 55° C. heat pulse 10 minutes; read-out: InCell Pulse IC50 GMean
How it was run: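 HEK293 cells transiently expressing full-length ACLY-ePL were exposed in OptiMEM to 11-point, 3-fold compound dilutions for 1 h at 37 °C, heat-pulsed 10 min at 55 °C, then lysed for enzyme-fragment complementation luminescence. Four-parameter fit, normalised to 0.5% DMSO and 1 μM NDI-094311.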

T1 sequence (P53396 whole entry): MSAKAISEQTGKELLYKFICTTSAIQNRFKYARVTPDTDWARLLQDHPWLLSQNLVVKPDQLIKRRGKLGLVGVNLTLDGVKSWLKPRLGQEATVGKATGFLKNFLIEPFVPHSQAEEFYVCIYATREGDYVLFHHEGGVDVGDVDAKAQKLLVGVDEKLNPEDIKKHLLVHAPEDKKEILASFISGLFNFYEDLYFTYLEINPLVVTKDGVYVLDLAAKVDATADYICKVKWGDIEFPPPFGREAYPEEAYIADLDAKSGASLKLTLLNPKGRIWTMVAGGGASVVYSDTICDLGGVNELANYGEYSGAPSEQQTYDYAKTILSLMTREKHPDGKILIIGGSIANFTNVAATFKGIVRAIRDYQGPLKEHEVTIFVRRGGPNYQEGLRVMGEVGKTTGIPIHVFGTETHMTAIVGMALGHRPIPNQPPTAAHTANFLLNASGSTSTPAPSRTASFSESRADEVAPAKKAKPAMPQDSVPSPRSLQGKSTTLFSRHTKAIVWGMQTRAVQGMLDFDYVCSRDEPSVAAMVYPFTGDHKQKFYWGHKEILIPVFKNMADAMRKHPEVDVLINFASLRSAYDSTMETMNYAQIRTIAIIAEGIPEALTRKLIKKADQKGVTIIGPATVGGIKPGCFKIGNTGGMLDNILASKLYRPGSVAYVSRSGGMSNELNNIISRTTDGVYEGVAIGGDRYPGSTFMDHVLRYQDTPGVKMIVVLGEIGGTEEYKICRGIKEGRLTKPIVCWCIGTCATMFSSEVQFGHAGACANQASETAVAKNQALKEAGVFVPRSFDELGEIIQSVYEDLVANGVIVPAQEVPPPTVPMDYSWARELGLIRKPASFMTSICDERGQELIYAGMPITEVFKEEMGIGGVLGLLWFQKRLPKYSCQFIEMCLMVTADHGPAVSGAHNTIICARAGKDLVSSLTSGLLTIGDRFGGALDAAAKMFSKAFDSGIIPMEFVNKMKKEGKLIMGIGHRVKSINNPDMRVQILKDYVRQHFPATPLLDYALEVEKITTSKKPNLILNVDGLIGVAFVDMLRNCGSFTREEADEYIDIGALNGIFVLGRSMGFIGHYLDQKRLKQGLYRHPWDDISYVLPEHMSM

Row | Structure (SMILES) | IC50 (ACLY [1]) | IC50 (ACLY [2])
1 | Nc1cc2cc(n1)S(=O)(=O)Nc1cc(c(F)cc1F)-c1ccccc1OCCOC2=O [Compound 63, 15-amino-21,23-difluoro-18,18-dioxo-8,11-dioxa-18λ6-thia-16,19-diazatetracyclo[18.3.1.113,17.02,7]pentacosa-1(23),2(7),3,5,13,15,17(25),20(24),21-nonaen-12-one] | ≥ 10000 nM | ≥ 50000 nM
2 | O=C1OCCOc2ccccc2-c2cc(c(F)cc2F)NS(=O)(=O)c2cc(O)cc1c2 [Compound 65, 21,23-difluoro-15-hydroxy-18,18-dioxo-8,11-dioxa-18λ6-thia-19-azatetracyclo[18.3.1.113,17.02,7]pentacosa-1(24),2,4,6,13,15,17(25),20,22-nonaen-12-one] | ≥ 10000 nM | ≥ 50000 nM
3 | N#Cc1ccc2c(c1)-c1cc(c(F)cc1F)NS(=O)(=O)c1cc(cc(Cl)c1O)C(=O)OCCO2 [Compound 28, 15-chloro-21,23-difluoro-16-hydroxy-12,18,18-trioxo-8,11-dioxa-18lambda6-thia-19-azatetracyclo[18.3.1.1^13,17.0^2,7]pentacosa-1(24),2,4,6,13,15,17(25),20,22-nonaene-4-carbonitrile] | 20 to 100 nM | 300 to 1000 nM
4 | O=C1OCCOc2ccc(Cl)cc2-c2ccc(F)c(c2)NS(=O)(=O)c2cc1cc(Cl)c2O [Compound 52, 4,15-dichloro-21-fluoro-16-hydroxy-18,18-dioxo-8,11-dioxa-18λ6-thia-19-azatetracyclo[18.3.1.113,17.02,7]pentacosa-1(23),2(7),3,5,13,15,17(25),20(24),21-nonaen-12-one] | 20 to 100 nM | 300 to 1000 nM
5 | O=C1OCCOc2ccc(F)cc2-c2ccc(F)c(c2)NS(=O)(=O)c2cc1c[nH]c2=O [Compound 37, 4,21-difluoro-18,18-dioxo-8,11-dioxa-18λ6-thia-15,19-diazatetracyclo[18.3.1.113,17.02,7]pentacosa-1(23),2(7),3,5,13,17(25),20(24),21-octaene-12,16-dione] | 100 to 10000 nM | ≥ 50000 nM
6 | O=C1NCCOc2ccccc2-c2cc(c(F)cc2F)CS(=O)(=O)c2cc1cc(Cl)c2O [Compound 14, 15-chloro-21,23-difluoro-16-hydroxy-8-oxa-18lambda6-thia-11-azatetracyclo[18.3.1.1^13,17.0^2,7]pentacosa-1(24),2,4,6,13,15,17(25),20,22-nonaene-12,18,18-trione] | ≥ 10000 nM | ≥ 50000 nM
7 | O=C1NCCc2ccccc2-c2cc(c(F)cc2F)NS(=O)(=O)c2cc1cc(Cl)c2O [Compound 30, 14-chloro-20,22-difluoro-15-hydroxy-17lambda6-thia-10,18-diazatetracyclo[17.3.1.1^12,16.0^2,7]tetracosa-1(23),2,4,6,12,14,16(24),19,21-nonaene-11,17,17-trione] | 20 to 100 nM | 1000 to 50000 nM
8 | Cn1cc2cc(c1=O)S(=O)(=O)Nc1cc(c(F)cc1F)-c1ccccc1OCCOC2=O [Compound 35, 21,23-difluoro-15-methyl-18,18-dioxo-8,11-dioxa-18λ6-thia-15,19-diazatetracyclo[18.3.1.113,17.02,7]pentacosa-1(23),2(7),3,5,13,17(25),20(24),21-octaene-12,16-dione] | ≥ 10000 nM | ≥ 50000 nM
9 | O=C1c2cc(Cl)c(O)c(c2)S(=O)(=O)Nc2cc(c(F)cc2F)-c2cccc3c2CN1C3 [Compound 89, 13-chloro-19,21-difluoro-14-hydroxy-16,16-dioxo-16λ6-thia-9,17-diazapentacyclo[16.3.1.16,9.111,15.02,7]tetracosa-1(21),2(7),3,5,11,13,15(23),18(22),19-nonaen-10-one] | 100 to 10000 nM | ≥ 50000 nM
10 | Cc1cc2cc(c1O)S(=O)(=O)Nc1cc(c(F)cc1F)-c1ccccc1CCOC2=O [Compound 75, 20,22-difluoro-15-hydroxy-14-methyl-17,17-dioxo-10-oxa-17λ6-thia-18-azatetracyclo[17.3.1.112,16.02,7]tetracosa-1(23),2,4,6,12,14,16(24),19,21-nonaen-11-one] | 100 to 10000 nM | 300 to 1000 nM
11 | O=C1OCC2CN(C2)c2ccccc2-c2cc(c(F)cc2F)NS(=O)(=O)c2cc1cc(Cl)c2O [Compound 76, 16-chloro-22,24-difluoro-17-hydroxy-19,19-dioxo-12-oxa-19λ6-thia-8,20-diazapentacyclo[19.3.1.18,10.114,18.02,7]heptacosa-1(25),2,4,6,14,16,18(26),21,23-nonaen-13-one] | 20 to 100 nM | 1000 to 50000 nM
12 | CC1CCOC(=O)c2cc(Cl)c(O)c(c2)S(=O)(=O)Nc2cc(c(F)cc2F)-c2ccccc21 (single isomer, unassigned) [Compound 44, 15-chloro-21,23-difluoro-16-hydroxy-8-methyl-18,18-dioxo-11-oxa-18λ6-thia-19-azatetracyclo[18.3.1.113,17.02,7]pentacosa-1(23),2(7),3,5,13,15,17(25),20(24),21-nonaen-12-one] | 100 to 10000 nM | 1000 to 50000 nM
13 | O=C1OCCc2ccc(F)cc2-c2ccc(F)c(c2)NS(=O)(=O)c2cc1cc(Cl)c2O [Compound 74, 14-chloro-4,20-difluoro-15-hydroxy-17,17-dioxo-10-oxa-17λ6-thia-18-azatetracyclo[17.3.1.112,16.02,7]tetracosa-1(22),2(7),3,5,12(24),13,15,19(23),20-nonaen-11-one] | 20 to 100 nM | < 300 nM

The remaining lines, values ahead:

Row | IC50 (ACLY [1]) | IC50 (ACLY [2]) | Structure (SMILES)
14 | 20 to 100 nM | 1000 to 50000 nM | O=C1OCCOc2ccccc2-c2ccc(C3CC3)c(c2)NS(=O)(=O)c2cc1cc(Cl)c2O [Compound 57, 15-chloro-21-cyclopropyl-16-hydroxy-18,18-dioxo-8,11-dioxa-18λ6-thia-19-azatetracyclo[18.3.1.113,17.02,7]pentacosa-1(23),2(7),3,5,13(25),14,16,20(24),21-nonaen-12-one]
15 | < 20 nM | < 300 nM | O=C1OCc2ccc(F)cc2-c2cc(F)c(F)c(c2)NS(=O)(=O)c2cc1cc(Cl)c2O [Compound 83, 13-chloro-4,19,20-trifluoro-14-hydroxy-16,16-dioxo-9-oxa-16λ6-thia-17-azatetracyclo[16.3.1.111,15.02,7]tricosa-1(21),2,4,6,11,13,15(23),18(22),19-nonaen-10-one]
16 | 20 to 100 nM | ≥ 50000 nM | O=C1OCCOc2ccccc2-c2cc(c(F)cc2F)NS(=O)(=O)c2cc1c[nH]c2=O [Compound 36, 21,23-difluoro-18,18-dioxo-8,11-dioxa-18λ6-thia-15,19-diazatetracyclo[18.3.1.113,17.02,7]pentacosa-1(23),2(7),3,5,13,17(25),20(24),21-octaene-12,16-dione]
17 | < 20 nM | 300 to 1000 nM | O=C1OCCOc2ccccc2-c2ccc(OC(F)F)c(c2)NS(=O)(=O)c2cc1cc(Cl)c2O [Compound 55, 15-chloro-21-(difluoromethoxy)-16-hydroxy-18,18-dioxo-8,11-dioxa-18λ6-thia-19-azatetracyclo[18.3.1.113,17.02,7]pentacosa-1(23),2(7),3,5,13(25),14,16,20(24),21-nonaen-12-one]
18 | < 20 nM | < 300 nM | O=C1OCc2ccc(F)cc2-c2cc(c(F)cc2F)NS(=O)(=O)c2cc1cc(Cl)c2O [Compound 81, 13-chloro-4,19,21-trifluoro-14-hydroxy-16,16-dioxo-9-oxa-16λ6-thia-17-azatetracyclo[16.3.1.111,15.02,7]tricosa-1(21),2,4,6,11(23),12,14,18(22),19-nonaen-10-one]
19 | < 20 nM | < 300 nM | O=C1OCc2ccccc2-c2cc(c(F)cc2F)NS(=O)(=O)c2cc1cc(Cl)c2O [Compound 78, 13-Chloro-19,21-difluoro-14-hydroxy-16,16-dioxo-9-oxa-16λ6-thia-17-azatetracyclo[16.3.1.111,15.02,7]tricosa-1(21),2(7),3,5,11(23),12,14,18(22),19-nonaen-10-one]
20 | < 20 nM | < 300 nM | O=C1OCCOc2ccccc2-c2cc(F)c(F)c(c2)NS(=O)(=O)c2cc1cc(Cl)c2O [Compound 54, 15-chloro-21,22-difluoro-16-hydroxy-18,18-dioxo-8,11-dioxa-18λ6-thia-19-azatetracyclo[18.3.1.113,17.02,7]pentacosa-1(23),2(7),3,5,13(25),14,16,20(24),21-nonaen-12-one]
21 | < 20 nM | < 300 nM | O=C1OCC2Cc3cccc(c3O2)-c2cc(c(F)cc2F)NS(=O)(=O)c2cc1cc(Cl)c2O (stereo not shown) [Compound 39, 15-chloro-21,23-difluoro-16-hydroxy-18,18-dioxo-8,11-dioxa-18λ6-thia-19-azapentacyclo[18.3.1.16,9.113,17.02,7]hexacosa-1(23),2(7),3,5,13,15,17(25),20(24),21-nonaen-12-one]
22 | < 20 nM | 300 to 1000 nM | COc1ccc2cc1NS(=O)(=O)c1cc(cc(Cl)c1O)C(=O)OCCOc1ccccc1-2 [Compound 26, 15-chloro-16-hydroxy-21-methoxy-8,11-dioxa-18lambda6-thia-19-azatetracyclo[18.3.1.1^13,17.0^2,7]pentacosa-1(24),2,4,6,13,15,17(25),20,22-nonaene-12,18,18-trione]
23 | < 20 nM | < 300 nM | O=C1OCCc2ccccc2-c2cc(F)c(F)c(c2)NS(=O)(=O)c2cc1cc(Cl)c2O [Compound 80, 14-chloro-20,21-difluoro-15-hydroxy-17,17-dioxo-10-oxa-17λ6-thia-18-azatetracyclo[17.3.1.112,16.02,7]tetracosa-1(23),2,4,6,12,14,16(24),19,21-nonaen-11-one]
